The source of these data is patent publication US11540518B2, “Fungicidal oxadiazoles” (FMC Corporation, priority 2017, dated 2023).

One experiment has as its system Phakopsora pachyrhizi. Briefly: Test A: Asian soybean rust control on soybean seedlings. The conditions noted are these: sprayed to run-off on soybean seedlings, inoculated the following day, 100 = 100% disease control, 0 = no control. Format: in vivo. The source says:
General protocol for preparing test suspensions for Tests A-C: the test compounds were first dissolved in acetone in an amount equal to 3% of the final volume and then suspended at the desired concentration (in ppm) in acetone and purified water (50/50 mix by volume) containing 250 ppm of the surfactant PEG400 (polyhydric alcohol esters). The resulting test suspensions were then used in Tests A-C.
The test solution was sprayed to the point of run-off on soybean seedlings. The following day the seedlings were inoculated with a spore suspension of Phakopsora pachyrhizi (the causal agent of Asian soybean rust) and incubated in a saturated atmosphere at 22° C. for 24 h, and then moved to a growth chamber at 22° C. for 8 days, after which time visual disease ratings were made.
Results for Tests A-C are given in Table A. In the Table, a rating of 100 indicates 100% disease control and a rating of 0 indicates no disease control (relative to the controls). A dash (-) indicates the compound was not tested.

Experiment [1] has as its system Puccinia recondita f. sp. tritici. Description: Test C: wheat leaf rust control on wheat seedlings. The experiment is classed as in vivo. The settings on record: sprayed to run-off on wheat seedlings, inoculated the following day, 100 = 100% disease control, 0 = no control. From the text: General protocol for preparing test suspensions for Tests A-C: the test compounds were first dissolved in acetone in an amount equal to 3% of the final volume and then suspended at the desired concentration (in ppm) in acetone and purified water (50/50 mix by volume) containing 250 ppm of the surfactant PEG400 (polyhydric alcohol esters). The resulting test suspensions were then used in Tests A-C. The test solution was sprayed to the point of run-off on wheat seedlings. The following day the seedlings were inoculated with a spore suspension of Puccinia recondita f. sp. tritici (the causal agent of wheat leaf rust) and incubated in a saturated atmosphere at 20° C. for 24 h, and then moved to a growth chamber at 20° C. for 6 days, after which time disease ratings were made. Results for Tests A-C are given in Table A. In the Table, a rating of 100 indicates 100% disease control and a rating of 0 indicates no disease control (relative to the controls). A dash (-) indicates the compound was not tested.

`C#CCCNC(=O)OC(C)c1ccc(-c2noc(C(F)(F)F)n2)cc1` (stereo not drawn) [Compound 67]: the “Test A disease control rating” value in the experiment with Phakopsora pachyrhizi (50 ppm) amounted to 100%. Besides, the “Test C disease control rating” value in experiment [1] (50 ppm) is recorded as 100%.

As to `O=C(Nc1cccnc1)OCc1ccc(-c2noc(C(F)(F)F)n2)cc1` [Compound 22], the “Test A disease control rating” value in the experiment with Phakopsora pachyrhizi (10 ppm) was determined as 99%. Moreover, the “Test C disease control rating” value in experiment [1] (10 ppm) is on record as 97%.

With `CCOC(=O)c1ccc(NC(=O)OCc2ccc(-c3noc(C(F)(F)F)n3)cc2)cc1` [Compound 57], the “Test A disease control rating” value in the experiment on Phakopsora pachyrhizi (10 ppm) turned out to be 100%. Further, in experiment [1] (10 ppm), the “Test C disease control rating” value came out at 0%.

Regarding `CC(OC(=O)Nc1cccnc1)c1ccc(-c2noc(C(F)(F)F)n2)cc1` (stereo not drawn) [Compound 23, 1-[4-[5-(trifluoromethyl)-1,2,4-oxadiazol-3-yl]phenyl]ethyl N-3-pyridinylcarbamate], the pest or weed control at 10 ppm with Phakopsora pachyrhizi (Phakopsora pachyrhizi, 216 h, 10 ppm, read-out: Test A disease control rating) is 100%; in experiment [1] (Puccinia recondita, 168 h, 10 ppm, read-out: Test C disease control rating), 97%.

On to `N#CCNC(=O)OCc1ccc(-c2noc(C(F)(F)F)n2)cc1` [Compound 55], for which the “Test A disease control rating” value in the experiment with Phakopsora pachyrhizi (10 ppm) came out at 100%. The “Test C disease control rating” value in experiment [1] (10 ppm) was found to be 86%.

Consider `CN(N=Cc1ccc(-c2noc(C(F)(F)F)n2)cc1)C(=O)OC(C)(C)C` [Compound 109], for which the “Test A disease control rating” value in the experiment with Phakopsora pachyrhizi (50 ppm) amounted to 100%. The “Test C disease control rating” value in experiment [1] (50 ppm) is 95%.

For the compound `C#CCNC(=O)OCCCc1ccc(-c2noc(C(F)(F)F)n2)cc1` [Compound 30], the “Test A disease control rating” value in the experiment with Phakopsora pachyrhizi (10 ppm) was determined as 100%. For the same compound, in experiment [1] (10 ppm), the “Test C disease control rating” value stood at 99%.

Regarding `CCOC(=O)c1ccc(NC(=O)OCCc2ccc(-c3noc(C(F)(F)F)n3)cc2)cc1` [Compound 59], the “Test A disease control rating” value with Phakopsora pachyrhizi (50 ppm) was determined as 96%. Moreover, in experiment [1] (50 ppm), the “Test C disease control rating” value is reported as 0%.

Consider `CCOC(=O)c1ccc(NC(=O)OCCCc2ccc(-c3noc(C(F)(F)F)n3)cc2)cc1` [Compound 60], for which, in the experiment with Phakopsora pachyrhizi (50 ppm), the “Test A disease control rating” value was 0%. Besides, the “Test C disease control rating” value in experiment [1] (50 ppm) was found to be 0%.

Take `COC(=O)c1ccc(NC(=O)OCCc2ccc(-c3noc(C(F)(F)F)n3)cc2)cc1` [Compound 49]: in the experiment with Phakopsora pachyrhizi (50 ppm), the “Test A disease control rating” value was found to be 96%. For the same compound, the “Test C disease control rating” value in experiment [1] (50 ppm) is reported as 0%.

In the case of `CCOC(=O)c1ccc(CNC(=O)OCCc2ccc(-c3noc(C(F)(F)F)n3)cc2)cc1` [Compound 68], the “Test A disease control rating” value with Phakopsora pachyrhizi (50 ppm) was 99%. Also, the “Test C disease control rating” value in experiment [1] (50 ppm) stood at 0%.

For the compound `NC(=O)OCCc1ccc(-c2noc(C(F)(F)F)n2)cc1` [Compound 41], the “Test A disease control rating” value in the experiment with Phakopsora pachyrhizi (10 ppm) is 100%. The “Test C disease control rating” value in experiment [1] (10 ppm) is on record as 99%.

Regarding `CNC(=O)OCCCc1ccc(-c2noc(C(F)(F)F)n2)cc1` [Compound 31], the “Test A disease control rating” value in the experiment with Phakopsora pachyrhizi (10 ppm) turned out to be 100%. Besides, in experiment [1] (10 ppm), the “Test C disease control rating” value was 99%.

For the compound `CCN(CC)C(=O)OCc1ccc(-c2noc(C(F)(F)F)n2)cc1` [Compound 53], the “Test A disease control rating” value in the experiment with Phakopsora pachyrhizi (10 ppm) came out at 100%. Moreover, in experiment [1] (10 ppm), the “Test C disease control rating” value was determined as 68%.

With `CCOC(=O)c1ccc(CNC(=O)OC(C)c2ccc(-c3noc(C(F)(F)F)n3)cc2)cc1` (racemic) [Compound 27], the “Test A disease control rating” value in the experiment with Phakopsora pachyrhizi (10 ppm) came out at 100%. For the same compound, the “Test C disease control rating” value in experiment [1] (10 ppm) is listed as 0%.

In the case of `CONC(=O)OCc1ccc(-c2noc(C(F)(F)F)n2)cc1` [Compound 136], the “Test A disease control rating” value with Phakopsora pachyrhizi (10 ppm) was determined as 79%. The “Test C disease control rating” value in experiment [1] (10 ppm) is 0%.

As to `CCOC(=O)c1ccc(CNC(=O)OCCCc2ccc(-c3noc(C(F)(F)F)n3)cc2)cc1` [Compound 69], in the experiment on Phakopsora pachyrhizi (50 ppm), the “Test A disease control rating” value amounted to 100%. Besides, the “Test C disease control rating” value in experiment [1] (50 ppm) turned out to be 0%.

Take `O=C(OCCCc1ccc(-c2noc(C(F)(F)F)n2)cc1)n1ccnc1` [Compound 21]: the “Test A disease control rating” value with Phakopsora pachyrhizi (50 ppm) turned out to be 100%. In addition, the “Test C disease control rating” value in experiment [1] (50 ppm) came out at 99%.

For the compound `O=C(Nc1cccnc1)OCCc1ccc(-c2noc(C(F)(F)F)n2)cc1` [Compound 34], the “Test A disease control rating” value in the experiment on Phakopsora pachyrhizi (50 ppm) amounted to 100%. In addition, the “Test C disease control rating” value in experiment [1] (50 ppm) came out at 98%.

As for `COC(=O)c1ccc(NC(=O)OCc2ccc(-c3noc(C(F)(F)F)n3)cc2)cc1` [Compound 47], in the experiment with Phakopsora pachyrhizi (50 ppm), the “Test A disease control rating” value is 100%. Also, the “Test C disease control rating” value in experiment [1] (50 ppm) stood at 41%.

For `NC(=O)OC(c1ccccc1)c1ccc(-c2noc(C(F)(F)F)n2)cc1` (stereo not drawn) [Compound 117], the “Test A disease control rating” value in the experiment with Phakopsora pachyrhizi (250 ppm) is 100%. The “Test C disease control rating” value in experiment [1] (250 ppm) amounted to 100%.

On to `COC(=O)c1ccc(NC(=O)OCCCc2ccc(-c3noc(C(F)(F)F)n3)cc2)cc1` [Compound 50], for which the “Test A disease control rating” value in the experiment on Phakopsora pachyrhizi (50 ppm) worked out at 0%. The “Test C disease control rating” value in experiment [1] (50 ppm) is reported as 0%.

As for `CC#CCNC(=O)OCCc1ccc(-c2noc(C(F)(F)F)n2)cc1` [Compound 63], the “Test A disease control rating” value in the experiment with Phakopsora pachyrhizi (50 ppm) is 100%. For the same compound, the “Test C disease control rating” value in experiment [1] (50 ppm) is 100%.

Turning to `O=C(NC1CC1)OCc1ccc(-c2noc(C(F)(F)F)n2)cc1` [Compound 54], the “Test A disease control rating” value in the experiment with Phakopsora pachyrhizi (10 ppm) was 100%. Besides, the “Test C disease control rating” value in experiment [1] (10 ppm) was 92%.

On to `COC(=O)c1ccc(NC(=O)OC(C)c2ccc(-c3noc(C(F)(F)F)n3)cc2)cc1` (stereo not drawn) [Compound 48], for which, in the experiment on Phakopsora pachyrhizi (50 ppm), the “Test A disease control rating” value was 100%. Besides, the “Test C disease control rating” value in experiment [1] (50 ppm) came to 97%.

As for `C=CCNC(=O)OCc1ccc(-c2noc(C(F)(F)F)n2)cc1` [Compound 51], in the experiment on Phakopsora pachyrhizi (10 ppm), the “Test A disease control rating” value was 100%. Moreover, the “Test C disease control rating” value in experiment [1] (10 ppm) is recorded as 99%.

With `C#CCNC(=O)OCCc1ccc(-c2noc(C(F)(F)F)n2)cc1` [Compound 45], in the experiment on Phakopsora pachyrhizi (10 ppm), the “Test A disease control rating” value is recorded as 100%. In addition, the “Test C disease control rating” value in experiment [1] (10 ppm) stood at 93%.

Turning to `O=C(OCc1ccc(-c2noc(C(F)(F)F)n2)o1)n1ccnc1` [Compound 82], the pest or weed control at 50 ppm in the experiment on Phakopsora pachyrhizi (Phakopsora pachyrhizi, 216 h, 50 ppm, read-out: Test A disease control rating) was determined as 89%; in experiment [1] (Puccinia recondita, 168 h, 50 ppm, read-out: Test C disease control rating), 0%.

Turning to `CCOC(=O)c1ccc(NC(=O)OC(C)c2ccc(-c3noc(C(F)(F)F)n3)cc2)cc1` (stereo not drawn) [Compound 58], in the experiment with Phakopsora pachyrhizi (50 ppm), the “Test A disease control rating” value turned out to be 100%. Moreover, the “Test C disease control rating” value in experiment [1] (50 ppm) is listed as 79%.

Regarding `CN(C)C(=O)OC(c1ccccc1)c1ccc(-c2noc(C(F)(F)F)n2)cc1` (stereo not drawn) [Compound 121], in the experiment on Phakopsora pachyrhizi (250 ppm), the “Test A disease control rating” value amounted to 100%. The “Test C disease control rating” value in experiment [1] (250 ppm) is recorded as 99%.

On to `C#CCNC(=O)OC(c1ccccc1)c1ccc(-c2noc(C(F)(F)F)n2)cc1` (stereo not drawn) [Compound 118], for which the “Test A disease control rating” value with Phakopsora pachyrhizi (250 ppm) is reported as 100%. In experiment [1] (250 ppm), the “Test C disease control rating” value was found to be 100%.

For the compound `C#CCCNC(=O)OC(c1ccccc1)c1ccc(-c2noc(C(F)(F)F)n2)cc1` (stereo not drawn) [Compound 120], the “Test A disease control rating” value in the experiment on Phakopsora pachyrhizi (250 ppm) was determined as 100%. Further, the “Test C disease control rating” value in experiment [1] (250 ppm) is 100%.

In the case of `Cc1ccccc1C(OC(=O)n1ccnc1)c1ccc(-c2noc(C(F)(F)F)n2)cc1` (stereo not drawn) [Compound 142], the “Test A disease control rating” value in the experiment on Phakopsora pachyrhizi (10 ppm) turned out to be 98%. Further, the “Test C disease control rating” value in experiment [1] (10 ppm) was 0%.

Take `COC(=O)c1ccc(CNC(=O)OC(C)c2ccc(-c3noc(C(F)(F)F)n3)cc2)cc1` (racemic) [Compound 25]: the “Test A disease control rating” value in the experiment with Phakopsora pachyrhizi (10 ppm) is recorded as 100%. Also, in experiment [1] (10 ppm), the “Test C disease control rating” value worked out at 26%.

For `CC(OC(N)=O)c1ccc(-c2noc(C(F)(F)F)n2)cc1` (stereo not drawn) [Compound 84], the “Test A disease control rating” value in the experiment with Phakopsora pachyrhizi (10 ppm) worked out at 100%. The “Test C disease control rating” value in experiment [1] (10 ppm) is given as 100%.

As for `CC#CCNC(=O)OCCCc1ccc(-c2noc(C(F)(F)F)n2)cc1` [Compound 64], in the experiment with Phakopsora pachyrhizi (50 ppm), the “Test A disease control rating” value is recorded as 100%. For the same compound, the “Test C disease control rating” value in experiment [1] (50 ppm) was 100%.

Turning to `COc1ccc(C(OC(=O)n2ccnc2)c2ccc(-c3noc(C(F)(F)F)n3)cc2)cc1` (stereo not drawn) [Compound 83], the “Test A disease control rating” value in the experiment with Phakopsora pachyrhizi (50 ppm) came to 100%. In addition, the “Test C disease control rating” value in experiment [1] (50 ppm) stood at 100%.

As for `C#CCNC(=O)OCc1ccc(-c2noc(C(F)(F)F)n2)o1` [Compound 81], in the experiment with Phakopsora pachyrhizi (10 ppm), the “Test A disease control rating” value amounted to 0%. The “Test C disease control rating” value in experiment [1] (10 ppm) was determined as 45%.

As to `COCCNC(=O)OC(c1ccccc1)c1ccc(-c2noc(C(F)(F)F)n2)cc1` (stereo not drawn) [Compound 122], the “Test A disease control rating” value in the experiment with Phakopsora pachyrhizi (10 ppm) is listed as 100%. For the same compound, the “Test C disease control rating” value in experiment [1] (10 ppm) came to 89%.
